The numbers were not newly measured in PMC3745299 (Journal of medicinal chemistry, 2013), which cites them from elsewhere.

Where two headings read alike, the source gives them in different places.

As a reminder, the MIC90 is an inhibitory concentration at the 90% level, which refers to growth in some studies and to a panel of isolates in others.

Data set [1] has as its system human pregnane X receptor (hPXR). Conditions: below 100 μM.
Data set [2] concerns Mycobacterium tuberculosis.
The subject of data set [3] is Cyp450. The settings on record: rat.
Data set [4] relates to Cyp450. Conditions: dog.

For the compound `CO[C@H]1/C=C/O[C@@]2(C)Oc3c(C)c(O)c4c(=O)c(c5oc6cc(N7CCN(CC(C)C)CC7)cc(O)c6nc-5c4c3C2=O)NC(=O)/C(C)=C\C=C\[C@H](C)[C@H](O)[C@@H](C)[C@@H](O)[C@@H](C)[C@H](OC(C)=O)[C@@H]1C` [bxRIF2a, rifalazil], in data set [1], the “hPXR activation in vitro” value is on record as “essentially no hPXR activation”. The MIC90 in data set [2] was below 4 nM. Besides, the Cyp450 induction activity entry with Cyp450 [3] and in the data set on Cyp450 [4] was “dramatically reduced” in each case.
